# “And” between values parts separate entries of the source, which are not always exact repeats. Identical values can stand only once. Like-named read-outs stand apart in the source and are kept apart here.
# How the values were obtained:
# SW480 cells = type: cell-based
# Protocol: For cell growth/density studies, a mitochondrial activity assay was used, as exemplified by the following. Cells (SW480, MCF-7S8) were propagated in complete medium (DME: F12, 10% FCS (SW 480) or 5% FCS (MCF-7S8, P/S)), trypsinized, and seeded in 96 well plates as 10,000 cells/well in medium with 0.5% FCS. All wells in the periphery were omitted and only filled with medium. […] All treatments are made in triplicates. […] Treatment was continued for 48 hours (SW480 cells) or 72 hours (MCF-7S8 cells) before quantification of the cell density. Media was exchanged each day. Media and peptides were diluted in DMSO. When measuring cell density, the volume of each well was adjusted to […] Pre-diluted WST-1 (1 ml+1.5 ml DME:F12) was added as 25 μL to each well including background samples. Three wells with media only served as background controls. The cells were incubated for 90 min protected against light in an incubator.
# purified HIGF-1R = target: T1, purified HIGF-1R (Homo sapiens, UniProt P08069); assay: IGF-1R activation kinase assay; type: biochemical; details: FIG. 2
# T1 construct: HIGF-1R was purified from a cell culture of BHK cells stably transfected with IGF-1R cDNA; made in house; host or cells: BHK cells stably transfected with IGF-1R cDNA
# T1 sequence (P08069 31-736 limits assumed): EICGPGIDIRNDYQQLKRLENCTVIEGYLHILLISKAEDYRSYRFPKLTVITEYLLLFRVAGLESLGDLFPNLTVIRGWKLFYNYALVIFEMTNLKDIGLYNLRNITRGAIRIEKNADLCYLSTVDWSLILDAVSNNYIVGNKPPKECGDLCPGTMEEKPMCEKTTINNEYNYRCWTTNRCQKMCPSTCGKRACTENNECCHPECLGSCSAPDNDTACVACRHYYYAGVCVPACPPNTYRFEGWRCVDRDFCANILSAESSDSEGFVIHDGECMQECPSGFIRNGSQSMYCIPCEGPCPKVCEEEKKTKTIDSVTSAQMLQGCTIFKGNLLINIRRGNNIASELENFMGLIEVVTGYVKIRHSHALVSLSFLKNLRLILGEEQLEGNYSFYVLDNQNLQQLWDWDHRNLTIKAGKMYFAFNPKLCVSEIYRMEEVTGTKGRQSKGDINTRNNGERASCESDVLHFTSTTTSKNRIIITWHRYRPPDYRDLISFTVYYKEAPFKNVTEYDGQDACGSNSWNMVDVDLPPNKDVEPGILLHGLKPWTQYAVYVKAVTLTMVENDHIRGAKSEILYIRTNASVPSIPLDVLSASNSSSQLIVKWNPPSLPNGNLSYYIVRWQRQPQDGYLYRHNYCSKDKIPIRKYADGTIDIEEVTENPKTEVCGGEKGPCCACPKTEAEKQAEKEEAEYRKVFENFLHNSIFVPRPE
# T1 sequence (P08069 741-1367 limits assumed): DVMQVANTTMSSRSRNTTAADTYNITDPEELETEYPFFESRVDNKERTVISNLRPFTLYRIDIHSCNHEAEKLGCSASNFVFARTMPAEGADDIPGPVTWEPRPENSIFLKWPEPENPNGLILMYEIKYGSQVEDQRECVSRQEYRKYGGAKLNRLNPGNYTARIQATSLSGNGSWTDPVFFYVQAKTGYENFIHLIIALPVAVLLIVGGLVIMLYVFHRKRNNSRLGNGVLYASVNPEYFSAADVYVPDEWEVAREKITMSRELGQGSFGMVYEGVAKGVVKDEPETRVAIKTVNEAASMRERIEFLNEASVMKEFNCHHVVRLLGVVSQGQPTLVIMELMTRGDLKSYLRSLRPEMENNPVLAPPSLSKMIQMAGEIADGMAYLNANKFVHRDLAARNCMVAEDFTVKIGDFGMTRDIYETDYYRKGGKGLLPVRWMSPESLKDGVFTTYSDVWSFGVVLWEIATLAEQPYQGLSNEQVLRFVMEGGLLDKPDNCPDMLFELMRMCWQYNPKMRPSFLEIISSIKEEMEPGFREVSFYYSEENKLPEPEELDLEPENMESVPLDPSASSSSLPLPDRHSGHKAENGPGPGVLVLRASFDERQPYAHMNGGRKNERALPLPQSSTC
# Protocol: For determining IGF-1R activation with test peptides, a kinase assay, generally using the following conditions was employed. A solution of each test peptide in kinase buffer (Hepes 100 mM (pH 8.0), MgCl2 8 mM, MnCl2 6 mM, Triton X100 0.1% v/v, BSA 0.2% w/v, 4 μg/ml IRS-1 peptide (Biotin-[…] in PBS+1 mg/ml)) was prepared. Samples were mixed in a microtiter plate in triplicate. 50 μl 2× kinase buffer was added into each well. […] Volume was adjusted to 88 μL, before addition of purified HIGF-1R (2 μl/well). Plates were shaken and incubated for 50 min. at room temperature (RT). DTT and 10 μl/well ATP were added and the wells incubated for 10 min. before stopping the reaction by adding 10 μl stop-buffer (50 mM EDTA (pH 8.0))/well and shaking. The samples were then transferred to streptavidin coated plates and incubated for 1 hour at RT. The coated plates were aspirated and washed 3 times with TBS-T. […] P-tyr Ab-PO (Phosphotyrosine-RC20:HRPO (1:1000) in TBS-T) was added and each plate was incubated for 30 min at RT. The plates were aspirated and washed 3 times with TBS-T. 100 μl TMB-One-substrate (Kem-En-Tec Diagnostics A/S—Denmark) (preheated to RT) was then added and the plates further incubated for approximately 20 min at RT. This reaction was stopped by adding 10 μl H2SO4 and the plates were read in an ELISA-reader at […] within 5-10 min. thereafter. […]
# MCF7 cells = MCF7 cells (Homo sapiens, UniProt P08069); assay: antagonism assay in starved MCF7 cells, luminescence viability, 72 hrs; type: cell-based; details: Table 9
# MCF7 cells, sequence (P08069 31-736): as the sequence (P08069 31-736 limits assumed) above
# Protocol: Additional binding and antagonism assays using candidate peptides were performed. […] Cell viability was determined by luminescence assay and IC50 was calculated using standard techniques.
# IRS-1 = assay: downstream signaling: IRS-1 tyrosine phosphorylation; type: cell-based; details: L6 cells; 3 nM IGF-1; read-out: IRS-1, IC50 for down regulation of the stimulation to the basal level
# Protocol: (§1) The tyrosine phosphorylation of IRS signaling (the 180 kDa band on a tyrosine phosphor Western blot) as well as activation of effectors MAPK 44 and 42 and PKB were analyzed by using antibodies specific for their active forms using methods substantially similar to those described in Example 14 of the '246 PCT application.
# (§2) The effect of select peptides on downstream signaling (MAPK44, MAPK42, PKB/Akt, IRS-1, and IGF-1R) was also measured by studying the signaling in L6 cells predominantly expressing IGF-1R and very limited insulin receptors. […] The antagonistic effect of the peptides can be seen to affect all the downstream signaling from the IGF-1R.
# MAPK44 = assay: downstream signaling in L6 cells: MAPK44; type: cell-based; details: 3 nM IGF-1, read-out: MAPK44, IC50 for down regulation of the stimulation to the basal level
# Protocol: as §1, §2
# MAPK42 = assay: downstream signaling in L6 cells: MAPK42; type: cell-based; details: 3 nM IGF-1, read-out: MAPK42, IC50 for down regulation of the stimulation to the basal level
# Protocol: as §1, §2
# IGF-IR = assay: downstream signaling in L6 cells: IGF-IR; type: cell-based; details: 3 nM IGF-1, read-out: IGF-IR, IC50 for down regulation of the stimulation to the basal level
# Protocol: as §1, §2
# [1] = first value of the cell: concentration needed to blunt the effect of 10 nM IGF-1, cells in words only = effect as reported, 48 hours
# [2] = read-out: IC50, inhibition of IGF-1 (10 nM)-induced proliferation of SW480 cells, experiment 13262-015
# [3] = read-out: IC50, inhibition of IGF-1 (10 nM)-induced proliferation of SW480 cells, experiment 13262-016
# [4] = read-out: IC50 in SW480 (M) in presence of IGF-1/alone: in presence of IGF-1, first value of the cell: concentration needed to blunt the effect of 10 nM IGF-1, cells in words only = effect as reported, 48 hours
# [5] = read-out: IC50 in SW480 (M) in presence of IGF-1/alone: alone, second value of the cell: concentration needed to inhibit basal level in 0.5% FCS
compound,measurement,setting,value
CC[C@H](C)[C@H](NC(=O)[C@H](CS)NC(=O)[C@H](CCCNC(=N)N)NC(=O)[C@H](CCCNC(=N)N)NC(=O)[C@H](CCCNC(=N)N)NC(=O)[C@H](Cc1c[nH]c2ccccc12)NC(=O)CNC(=O)[C@H](Cc1ccccc1)NC(=O)[C@H](CO)NC(=O)[C@@H]1CCCN1C(=O)[C@@H](NC(=O)CNC(=O)[C@H](CC(C)C)NC(=O)[C@H](CO)NC(=O)[C@H](CC(C)C)NC(=O)[C@H](CC(=O)O)NC(=O)[C@H](CC(C)C)NC(=O)[C@H](CC(C)C)NC(=O)[C@H](CS)NC(=O)CNC(=O)[C@H](Cc1ccc(O)cc1)NC(=O)[C@H](Cc1ccccc1)NC(=O)[C@@H]1CCC(=O)N1)C(C)C)C(=O)N[C@H](C(=O)N[C@@H](C)C(=O)O)[C@@H](C)O [Peptide F138P],IC50,SW480 cells,5e-07 M
same,"inhibition of basal growth of SW480, doses",SW480 cells; without IGF-1,> 100 nM
Ac-ESDVWAQPQRRNDWPGYHWLSR [Peptide F288],IC50 in SW480 (M) in presence of IGF-1/alone: in presence of IGF-1,SW480 cells; [1],No effect
Ac-SFYSCLESLVQGPAEKSRGQWEGCRX [Peptide F369],IC50,SW480 cells; [2],> 1e-05 M
same,IC50,SW480 cells; [3],> 1e-05 M
Ac-VEGROLFYDLLROLLAMRRNG [Peptide F235],inhibition of IGF-1R kinase activation by IGF-1,purified HIGF-1R,completely inhibit
same,IC50 in SW480 (M) in presence of IGF-1/alone: in presence of IGF-1,SW480 cells; [1],No effect
Ac-VGRASGPPENFYDWPGRQLSLQSGEQRR [Peptide F287],IC50 in SW480 (M) in presence of IGF-1/alone: in presence of IGF-1,SW480 cells; [1],No effect
DMGDVECEDPFYDWFACQVRDTEFDE [Peptide F115],IC50 in SW480 (M) in presence of IGF-1/alone: in presence of IGF-1,SW480 cells; [1],No effect
EERATPRWRGYEWFDAQVERE [Peptide F211],IC50 in SW480 (M) in presence of IGF-1/alone: in presence of IGF-1,SW480 cells; [1],No effect
EFGTGYGGDGGGYWSGYEWLAW [Peptide F207],IC50 in SW480 (M) in presence of IGF-1/alone: in presence of IGF-1,SW480 cells; [1],No effect
same,IC50,SW480 cells; [4],2e-06 M
EFLTRLLERLGLSWERGEAGGPYAQAE [Peptide F175],IC50 in SW480 (M) in presence of IGF-1/alone: in presence of IGF-1,SW480 cells; [1],No effect
EFSGFCMGLERLSOVSLGYCGAGOGGE [Peptide F169],IC50,SW480 cells; [4],2e-06 M
EGLLFCKQLFTLAGLQPEAGCVSSSRE [Peptide F165],IC50 in SW480 (M) in presence of IGF-1/alone: in presence of IGF-1,SW480 cells; [1],No effect
EGRVDDAFYENFERQLGE [Peptide F213],IC50 in SW480 (M) in presence of IGF-1/alone: in presence of IGF-1,SW480 cells; [1],No effect
same,IC50,SW480 cells; [4],2e-06 M
EIQRDCQGRPCGDAANFYDWFVQQDSE [Peptide F268],IC50 in SW480 (M) in presence of IGF-1/alone: in presence of IGF-1,SW480 cells; [1],No effect
EISFRCQLFVLAGMHPCPVDVGGEGFE [Peptide F170],IC50 in SW480 (M) in presence of IGF-1/alone: in presence of IGF-1,SW480 cells; [1],No effect
ELQGFCELLATVTGVTGLGCLDYQPIE [Peptide F202],IC50 in SW480 (M) in presence of IGF-1/alone: in presence of IGF-1,SW480 cells; [1],No effect
same,IC50,SW480 cells; [4],> 1e-05 M
same,IC50 in SW480 (M) in presence of IGF-1/alone: alone,SW480 cells; second value of the cell: concentration needed to inhibit basal level in 0.5% FCS,no effect
ELSFACLLSQLSGVVLPDCLLGEDE [Peptide F201],IC50 in SW480 (M) in presence of IGF-1/alone: in presence of IGF-1,SW480 cells; [1],No effect
ENRSGELWEGYGWFNMQVRGE [Peptide F212],IC50 in SW480 (M) in presence of IGF-1/alone: in presence of IGF-1,SW480 cells; [1],No effect
EVDRDCQARPCGDAANFYDWFGQQGTE [Peptide F269],IC50,SW480 cells; [5],> 1e-05 M
same,IC50,SW480 cells; [4],5e-07 M
EVTSAGQWEGYEWFLGALHAE [Peptide F210],IC50 in SW480 (M) in presence of IGF-1/alone: in presence of IGF-1,SW480 cells; [1],No effect
FFYRCLSRLLGGOLGSRLGLSCIGD [Peptide F139],IC50 in SW480 (M) in presence of IGF-1/alone: in presence of IGF-1,SW480 cells; [1],Antagonistic
GIISQSCPESFYDWFAGQVSDPWWCW-Lig [Peptide F116],IC50 in SW480 (M) in presence of IGF-1/alone: in presence of IGF-1,SW480 cells; [1],No effect
GSLDESFYDWFERQLGKK-Lig [Peptide F118],IC50 in SW480 (M) in presence of IGF-1/alone: in presence of IGF-1,SW480 cells; [1],No effect
GSLDESFYRWFERQLEGGSGGSGLEQERAGTWCENSGRGCLH [Peptide F156],IC50 in SW480 (M) in presence of IGF-1/alone: in presence of IGF-1,SW480 cells; [1],No effect
GVRAMSFYDALVSVLGLGPSG [Peptide F157],IC50 in SW480 (M) in presence of IGF-1/alone: in presence of IGF-1,SW480 cells; [1],No effect
NFYGCLLDLSLGVPSFGWRRRCITA [Peptide F408],Activity,MCF7 cells,Antagonist
QFYGCLLDLSLGVPSPGWRRRCITA [Peptide F393],IC50,"SW480 cells; read-out: IC50, inhibition of IGF-1 (10 nM)-induced proliferation of SW480 cells, experiment 13262-027",1e-06 M
same,IC50,"SW480 cells; read-out: IC50, inhibition of IGF-1 (10 nM)-induced proliferation of SW480 cells, experiment 13262-029",1e-06 M
RQWDCRGRPCGDAESFYEWFDQQRS [Peptide F264],IC50,SW480 cells; [5],> 1e-05 M
same,IC50,SW480 cells; [4],> 1e-05 M
SAAQLFFQESFYDWFLRQVAESSQPN [Peptide F162],IC50 in SW480 (M) in presence of IGF-1/alone: in presence of IGF-1,SW480 cells; [1],No effect
SACQFDCHENFYDWFAROVSGOAAYG [Peptide F161],IC50 in SW480 (M) in presence of IGF-1/alone: in presence of IGF-1,SW480 cells; [1],No effect
SFYDCLLDLSIGGPSSDWRRRCITA [Peptide F441],Activity,MCF7 cells,Antagonist
SFYSCLESLVAGPAEKSRGQWEGCRK [Peptide F259],inhibition of IGF-1R kinase activation by IGF-1,purified HIGF-1R,completely inhibit
same,IC50,SW480 cells; [4],2e-06 M
SFYSCLESLVKRPTERSRGQWVGCR [Peptide F320],IC50,IRS-1,> 2000 nM
same,IC50,MAPK44,1000 nM
same,IC50,MAPK42,1000 nM
same,IC50,IGF-IR,2000 nM and > 1000 nM
same,IC50 in SW480 (M) in presence of IGF-1/alone: in presence of IGF-1,SW480 cells; [1],No effect
SFYSCLESLVNGGAERSEGOWEGCR [Peptide F113],IC50,SW480 cells; [2],> 1e-05 M
same,IC50,SW480 cells; [3],> 1e-05 M
SFYSCLESLVNGPAEKSRGQWDGCR [Peptide F249],IC50,SW480 cells; [5],> 1e-05 M
same,IC50,SW480 cells; [4],> 1e-05 M
SFYSCLESLVTGPAEKSRGQWEGCRK [Peptide F292],IC50,SW480 cells; [5],1e-06 M
same,IC50,SW480 cells; [4],1e-07 M
SFYSCLGSLLTGAPQPIRGAWDRCR [Peptide F144],IC50 in SW480 (M) in presence of IGF-1/alone: in presence of IGF-1,SW480 cells; [1],No effect
VEGRGLFYDLLRQLLARRQNG [Peptide F158],IC50 in SW480 (M) in presence of IGF-1/alone: in presence of IGF-1,SW480 cells; [1],No effect
VQDDCRGRPCGDADSFYEWFDQQAS [Peptide F263],IC50,SW480 cells; [5],> 1e-06 M
same,IC50,SW480 cells; [4],> 1e-06 M
